Test results reported in patent US20070160725A1, “Use of extracts and compounds of allium-genus plants as preservatives in the food and agri-food industries” (MOUSALA, S., L., priority 2004, published 2007).
Read-outs that look alike come from different tables or passages of the source.

Experiments:
Assay in all cases: agar diffusion, inhibition halo
Type in all cases: cell-based
[1] = test system: Trichoderma aureoviride CECT 20102
Procedure: (§1) In order to evaluate the antimicrobial activity the agar diffusion technique with cellulose discs of 6 mm in diameter impregnated with the different active ingredient testing doses was used.
(§2) Antifungal capacity was assessed against suspensions of […], harvested from pure cultures of the selected molds and against suspensions of 10^7 cells/ml for the case of yeasts. The culture medium used was the 2% Sabouraud-glucose medium (Merck).
(§3) After incubating the culture dishes inoculated with the different organisms at the corresponding temperatures, the microbial inhibition halos that appeared were measured, and said measurement includes the 6 mm diameter of the cellulose discs.

[2] = test system: Geotrichum candidum CECT 1902
Procedure: as §1, §2, §3

[3] = test system: Penicillium italicum CECT 2294
Procedure: as §1, §2, §3

[4] = test system: Mucor plumbeus, isolated from cheese; conditions: 1000 ppm
Procedure: as §1, §2, §3

[5] = test system: Staphylococcus aureus, isolated from hamburgers; conditions: 1000 ppm
Procedure: as §1
(§4) Antibacterial capacity was assessed against suspensions of 10^6 cells/ml, prepared from pure young cultures of each one of the strains to be tested. The culture medium used was Müller-Hinton medium (Merck).
as §3

[6] = test system: Salmonella typhimurium, ATCC 13311; conditions: 1000 ppm
Procedure: as §1, §4, §3

[7] = test system: Bacillus subtilis, isolated from paprika; conditions: 1000 ppm
Procedure: as §1, §4, §3

[8] = test system: Rhizopus stolonifer CECT 2344
Procedure: as §1, §2, §3

[9] = Penicillium italicum, CECT2294, 1000 ppm of commercial product, read-out: inhibition halo diameter
[10] = Penicillium italicum, CECT2294, 2000 ppm of commercial product, read-out: inhibition halo diameter
[11] = Penicillium italicum, CECT2294, 4000 ppm of commercial product, read-out: inhibition halo diameter
[12] = Penicillium italicum, CECT2294, read-out: inhibition halo diameter
[13] = 4000 ppm (active ingredient, dose in ppm)
[14] = 6000 ppm (active ingredient, dose in ppm)

Compound	inhibition halo diameter ([1]; 1000 ppm of commercial product)	inhibition halo diameter ([1]; 2000 ppm of commercial product)	inhibition halo diameter ([1]; 4000 ppm of commercial product)	inhibition halo diameter ([2]; 1000 ppm of commercial product)	inhibition halo diameter ([2]; 2000 ppm of commercial product)	inhibition halo diameter ([2]; 4000 ppm of commercial product)	zone of inhibition at 1000 µg/mL [3, 9]	zone of inhibition at 2000 µg/mL [3, 10]	zone of inhibition at 4000 µg/mL [3, 11]	further results
C=CCOC(Cn1ccnc1)c1ccc(Cl)cc1Cl (stereo not shown) [Imazalil]	20 mm	25 mm	31 mm	20 mm	23 mm	26 mm	46 mm	47 mm	50 mm	
CCCSS(=O)(=O)CCC [PTSO, Propyl Propylthiosulfonate]										inhibition halo diameter [4]: 13 mm; zone of inhibition at 1000 ppm ([3]; Penicillium italicum, CECT2294, 1000 ppm, read-out: inhibition halo diameter): 65 mm; inhibition halo diameter [5]: 55 mm; inhibition halo diameter [6]: 31 mm; inhibition halo diameter [7]: 65 mm
CCCN(CCOc1c(Cl)cc(Cl)cc1Cl)C(=O)n1ccnc1 [Prochloraz]	8 mm	11 mm	12 mm	0 mm	0 mm	0 mm				zone of inhibition at 1000 µg/mL [3, 12]: 31 mm; zone of inhibition at 2000 µg/mL [3, 12]: 35 mm; zone of inhibition at 4000 µg/mL [3, 12]: 35 mm
c1ccc2[nH]c(-c3cscn3)nc2c1 [Thiabendazole]	24 mm	26 mm	26 mm	0 mm	0 mm	0 mm	> 40 mm	> 40 mm	> 40 mm	
Oc1ccccc1-c1ccccc1 [o-Phenyl phenol]										inhibition halo diameter [1, 13]: 40 mm; inhibition halo diameter [1, 14]: 42 mm; inhibition halo diameter [2, 13]: 45 mm; inhibition halo diameter [2, 14]: 47 mm; inhibition halo diameter [8, 13]: 14 mm; inhibition halo diameter [8, 14]: 15 mm; zone of inhibition at 4000 ppm [3, 12]: 45 mm; zone of inhibition at 6000 ppm [3, 12]: 45 mm
Guazatine	25 mm	30 mm	35 mm	27 mm	30 mm	35 mm				inhibition halo diameter ([3]; 1000 ppm of commercial product): 10 mm; inhibition halo diameter ([3]; 2000 ppm of commercial product): 12 mm; inhibition halo diameter ([3]; 4000 ppm of commercial product): 15 mm
